Among the data in patent publication US10065950B2, “Substituted thiazoles as HIV integrase inhibitors” (Japan Tobacco Inc., priority 2010, dated 2018) are IC50 values, retold here.

Molecules are shown by their SMILES.

The target in this assay is HIV-1 pNL4-3 integrase (Human immunodeficiency virus type 1 group M subtype B (isolate NY5) (HIV-1), UniProt P12497). Briefly: Determination of enzyme (HIV integrase) inhibitory activity. It is filed as biochemical. The following applies: calculated from inhibition rate (fluorescence). An outline of the steps:
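Full-length pNL4-3 integrase from E. coli (0.75 μM stock) reacted 60 min at 37° C with compound and biotinylated donor DNA bound to streptavidin plates, in MOPS buffer with 5 mM MgCl2 and 10% DMSO. Digoxigenin-labelled target DNA (25 nM stock) then added for 20 min; strand transfer read by peroxidase anti-digoxigenin fluorescence (Ex 325/Em 420 nm).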

With `CCNC(=O)[C@]1(C)CN(C(C)C)C(=O)c2c(O)c(=O)c(-c3ncc(Cc4ccc(F)cc4)s3)cn21` [Example 226], the IC50 (as a rule, the concentration needed to halve the response being measured) is 13 nM.
In the case of `COCCOCC1(C)CN(C(C)C)C(=O)c2c(O)c(=O)c(-c3ncc(Cc4ccc(F)cc4)s3)cn21` (stereo not drawn) [Example 110], the IC50 was 23 nM.
On to `COC[C@H]1[C@@H](C)N(C(C)C)C(=O)c2c(O)c(=O)c(-c3nnc(Cc4ccc(F)cc4)s3)cn21` [Example 256], for which the IC50 was 8.2 nM.
Turning to `CC(C)C(=O)N(C)C[C@@H]1Cn2cc(-c3nnc(Cc4ccc(F)cc4F)s3)c(=O)c(O)c2C(=O)N1C(C)C` [Example 159], the IC50 was 6.6 nM.
Turning to `CC(C)N1C(=O)c2c(O)c(=O)c(-c3nnc(Cc4ccc(F)cc4)s3)cn2CC12CC2` [Example 176], the IC50 is 8.5 nM.
Regarding `COC[C@H]1CN(C(C)C)C(=O)c2c(O)c(=O)c(-c3nnc(Cc4ccc(F)c(OC)c4)s3)cn21` [Example 250], the IC50 is 17 nM.
Take `CCC(CC)N1C[C@H](COC)n2cc(-c3nnc(Cc4ccc(F)cc4)s3)c(=O)c(O)c2C1=O` [Example 337]: the IC50 was 17 nM.
As to `CC(C)N1CC(CNS(C)(=O)=O)n2cc(-c3ncc(Cc4ccc(F)cc4F)s3)c(=O)c(O)c2C1=O` (stereo not drawn) [Example 78], the IC50 is 8.9 nM.
Consider `CCN(C)C(=O)[C@]1(COCCOC)CN(C(C)C)C(=O)c2c(O)c(=O)c(-c3nnc(Cc4ccc(F)cc4)s3)cn21` [Example 397], for which the IC50 is 19 nM.
The result for `COCC1Cn2cc(-c3ncc(Cc4ccc(F)cc4F)s3)c(=O)c(O)c2C(=O)N1CC(C)C` (stereo not drawn) [Example 62] reads 9.2 nM; that for `CNC(=O)CC1CN(C(C)C)C(=O)c2c(O)c(=O)c(-c3ncc(Cc4ccc(F)cc4F)s3)cn21` (stereo not drawn) [Example 34], 8.2 nM.
Regarding `CCN1C(=O)c2c(O)c(=O)c(-c3nnc(CCc4ccc(F)cc4F)s3)cn2C[C@H]1COC` [Example 300], the IC50 is 9 nM.
For the compound `CCCCN1C[C@H](COCCOC)n2cc(-c3nnc(Cc4ccc(F)cc4)s3)c(=O)c(O)c2C1=O` [Example 362], the IC50 is 10 nM.
As for `COCCOC[C@H]1CN(CC(C)C)C(=O)c2c(O)c(=O)c(-c3nnc(Cc4ccc(F)cc4F)s3)cn21` [Example 45], the IC50 was 11 nM.
Regarding `CC(C)N1C[C@@](C)(C(=O)NC2CC2)n2cc(-c3ncc(Cc4ccc(F)cc4)s3)c(=O)c(O)c2C1=O` [Example 245], the IC50 is 8.1 nM.
For `CC(C)N1C(=O)c2c(O)c(=O)c(-c3nnc(Cc4ccc(F)cc4F)s3)cn2CC1CC(=O)O` (stereo not drawn) [Example 74], the IC50 is 5.7 nM.
As for `COC1CN(C(=O)[C@@]2(C)CN(C(C)C)C(=O)c3c(O)c(=O)c(-c4ncc(Cc5ccc(F)cc5)s4)cn32)C1` [Example 237], the half-inhibitory concentration (IC50) was 13 nM.
In the case of `CCOC[C@H]1CN(C(C)(C)C)C(=O)c2c(O)c(=O)c(-c3nnc(Cc4ccc(F)cc4)s3)cn21` [Example 361] it was 15 nM.
`CN(C)C(=O)[C@@]1(C)CN(C)C(=O)c2c(O)c(=O)c(-c3nnc(Cc4ccc(F)cc4)s3)cn21` [Example 313]: the IC50 is 9.7 nM.
Regarding `COC[C@H]1Cn2cc(-c3nnc(Cc4ccc(F)cc4F)s3)c(=O)c(O)c2C(=O)N1C(C)C` [Example 96], the 50% inhibitory concentration (IC50) is 6.7 nM.
As for `COC[C@H]1CN(C(C)C)C(=O)c2c(O)c(=O)c(-c3nnc(Cc4ccc(F)cc4Br)s3)cn21` [Example 230], the IC50 was 69 nM.
On to `CCNC(=O)CC1CN(C2CC2)C(=O)c2c(O)c(=O)c(-c3ncc(Cc4ccc(F)cc4F)s3)cn21` (stereo not drawn) [Example 165], for which the IC50 was 7.4 nM.
In the case of `COC[C@H]1[C@H](C)n2cc(-c3nnc(Cc4ccc(F)cc4)s3)c(=O)c(O)c2C(=O)N1C(C)C` [Example 299] it was 9.8 nM; in that of `CCN1C(=O)c2c(O)c(=O)c(-c3nnc(Cc4ccc(F)cc4)s3)cn2CC1(COC)COC` [Example 301], 8 nM; in that of `COC[C@H]1CN(C(C)C)C(=O)c2c(O)c(=O)c(-c3nnc(CCCc4ccc(F)cc4)s3)cn21` [Example 242], 13 nM.
`CC(C)N1C[C@H](Cn2cncn2)n2cc(-c3nnc(Cc4ccc(F)cc4)s3)c(=O)c(O)c2C1=O` [Example 358]: the IC50 was 12 nM.
Turning to `CC(C)N1C[C@](C)(C(=O)N2CCOCC2)n2cc(-c3nnc(Cc4ccc(F)cc4)s3)c(=O)c(O)c2C1=O` [Example 203], the IC50 was 13 nM.
The result for `C[C@@H](C1CC1)N1C[C@](C)(C(=O)N2CCC2)n2cc(-c3ncc(Cc4ccc(F)cc4)s3)c(=O)c(O)c2C1=O` [Example 273] reads 14 nM.
Regarding `CC[C@@H]1Cn2cc(-c3ncc(Cc4ccc(F)cc4)s3)c(=O)c(O)c2C(=O)N1CC` [Example 327], the IC50 is 5.9 nM.
Turning to `COCCOC[C@H]1CN(C(C)C)C(=O)c2c(O)c(=O)c(-c3nnc(Cc4ccc(F)c(F)c4)s3)cn21` [Example 155], the IC50 is 10 nM.
The result for `CCN1C(=O)c2c(O)c(=O)c(-c3ncc(Cc4ccc(F)cc4)s3)cn2C[C@@]1(C)C(=O)N1CCCC1` [Example 254] reads 7.6 nM.
Regarding `CC(C)CNC(=O)CC1CN(C(C)C)C(=O)c2c(O)c(=O)c(-c3ncc(Cc4ccc(F)cc4F)s3)cn21` (stereo not drawn) [Example 40], the IC50 was 13 nM.
Consider `COC1CN(C(=O)[C@@]2(C)CN([C@@H](C)C3CC3)C(=O)c3c(O)c(=O)c(-c4ncc(Cc5ccc(F)cc5)s4)cn32)C1` [Example 274], for which the IC50 was 12 nM.
Consider `CCNC(=O)[C@@]1(C)CN(CC)C(=O)c2c(O)c(=O)c(-c3nnc(Cc4ccc(F)cc4)s3)cn21` [Example 201], for which the IC50 was 9.5 nM.
For the compound `CCN1C(=O)c2c(O)c(=O)c(-c3ncc(Cc4ccc(F)cc4)s3)cn2C[C@@]1(C)C(=O)N(C)C` [Example 253], the IC50 was 7.7 nM.
Take `COC[C@H]1CN(C(C)C)C(=O)c2c(O)c(=O)c(-c3nnc(Cc4ccc(F)c(Cl)c4)s3)cn21` [Example 243]: the IC50 is 7.6 nM.
